Data taken from PubChem BioAssay AID330 (DTP/NCI, 2004).
Values joined by “and” are separate entries in the source; they are usually repeats but may differ in a detail not shown here. Equal values may be shown once. Toxic doses and inconclusive results are not listed. The calls were made as follows: active = survival T/C of 150% or more; inactive = T/C below 125% in these data.

Tested on: P388 leukemia ip, CD2F1 mice, survival T/C
Assay: NCI In Vivo Anticancer Drug Screen. Data for tumor model P388 Leukemia (intraperitoneal) in CD2F1 (CDF1) mice
Conditions: endpoint: median survival time, higher = longer survival
Method in brief: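 Mice carrying the transplanted tumor received test compound or vehicle. Survival was recorded in each group, and the value is the treated-group measurement divided by that of the vehicle-treated control group.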

[1] = dose: 25.0 mg/kg/injection, schedule: Q01DX009 (ip), vehicle: Klucel (hydroxypropylcellulose) (HPC)
[2] = dose: 50.0 mg/kg/injection, schedule: Q01DX009 (ip), vehicle: Klucel (hydroxypropylcellulose) (HPC)
[3] = dose: 100.0 mg/kg/injection, schedule: Q01DX009 (ip), vehicle: Klucel (hydroxypropylcellulose) (HPC)
[4] = dose: 200.0 mg/kg/injection, schedule: Q01DX009 (ip), vehicle: Klucel (hydroxypropylcellulose) (HPC)
[5] = dose: 50.0 mg/kg/injection, schedule: Q01DX005 (ip), vehicle: saline
[6] = dose: 100.0 mg/kg/injection, schedule: Q01DX005 (ip), vehicle: saline
[7] = dose: 200.0 mg/kg/injection, schedule: Q01DX005 (ip), vehicle: saline
[8] = dose: 60.0 mg/kg/injection, schedule: Q01DX005 (ip), vehicle: saline with Tween-80
[9] = dose: 120.0 mg/kg/injection, schedule: Q01DX005 (ip), vehicle: saline with Tween-80
[10] = dose: 240.0 mg/kg/injection, schedule: Q01DX005 (ip), vehicle: saline with Tween-80
[11] = dose: 50.0 mg/kg/injection, schedule: Q01DX005 (ip), vehicle: Klucel (hydroxypropylcellulose) (HPC)
[12] = dose: 100.0 mg/kg/injection, schedule: Q01DX005 (ip), vehicle: Klucel (hydroxypropylcellulose) (HPC)
[13] = dose: 100.0 mg/kg/injection, schedule: Q01DX009 (ip), vehicle: saline with Tween-80
[14] = dose: 200.0 mg/kg/injection, schedule: Q01DX009 (ip), vehicle: saline with Tween-80
[15] = dose: 200.0 mg/kg/injection, schedule: Q01DX005 (ip), vehicle: Klucel (hydroxypropylcellulose) (HPC)
[16] = dose: 50.0 mg/kg/injection, schedule: Q01DX005 (ip), vehicle: saline with Tween-80
[17] = dose: 100.0 mg/kg/injection, schedule: Q01DX005 (ip), vehicle: saline with Tween-80
[18] = dose: 200.0 mg/kg/injection, schedule: Q01DX005 (ip), vehicle: saline with Tween-80
[19] = dose: 12.5 mg/kg/injection, schedule: Q01DX009 (ip), vehicle: saline with Tween-80
[20] = dose: 25.0 mg/kg/injection, schedule: Q01DX009 (ip), vehicle: saline with Tween-80
[21] = dose: 50.0 mg/kg/injection, schedule: Q01DX009 (ip), vehicle: saline with Tween-80

Measured: T/C

S=C(C(=S)N1CCOCC1)N1CCOCC1
inactive: [1] 110 % of control | dose: 50.0 mg/kg/injection, schedule: Q01DX001 (ip), vehicle: saline 100 % of control | [2] 99 % of control and 101 % of control and 112 % of control | dose: 100.0 mg/kg/injection, schedule: Q01DX001 (ip), vehicle: saline 107 % of control | [3] 101 % of control and 114 % of control | dose: 200.0 mg/kg/injection, schedule: Q01DX001 (ip), vehicle: saline 112 % of control | [4] 103 % of control and 110 % of control and 123 % of control

C[C@H]1C(=O)NC(=O)[C@@H]1C
inactive: [5] 106 % of control | [6] 100 % of control | [7] 103 % of control

Cc1ccc(C(O)c2cnc(C)n2Cc2ccccc2)cc1 (configuration not stated)
inactive: [8] 100 % of control | [9] 98 % of control | [10] 92 % of control

CC1(C)CC2C1(O)CCC1(C)C(O)C=CC21CO (configuration not stated)
inactive: dose: 6.0 mg/kg/injection, schedule: Q01DX005 (ip), vehicle: Klucel (hydroxypropylcellulose) (HPC) 98 % of control | dose: 12.0 mg/kg/injection, schedule: Q01DX005 (ip), vehicle: Klucel (hydroxypropylcellulose) (HPC) 95 % of control | dose: 24.0 mg/kg/injection, schedule: Q01DX005 (ip), vehicle: Klucel (hydroxypropylcellulose) (HPC) 100 % of control | dose: 25.0 mg/kg/injection, schedule: Q01DX005 (ip), vehicle: Klucel (hydroxypropylcellulose) (HPC) 93 % of control | dose: 48.0 mg/kg/injection, schedule: Q01DX005 (ip), vehicle: Klucel (hydroxypropylcellulose) (HPC) 90 % of control | [11] 93 % of control | [12] 90 % of control

CC1C=CC(C)c2c(-c3ccccc3)oc(-c3ccccc3)c21 (configuration not stated)
inactive: [13] 95 % of control | [14] 104 % of control | dose: 400.0 mg/kg/injection, schedule: Q01DX009 (ip), vehicle: saline with Tween-80 108 % of control

[N-]=[N+]=NC1(N=[N+]=[N-])C(=O)c2cccc3c2N(CCC3)C1=O (configuration not stated)
inactive: [11] 92 % of control | [12] 114 % of control | [15] 88 % of control

CCCCN(CCCC)CCNc1ccc(C)c2sc3ccc([N+](=O)[O-])cc3c(=O)c12
inactive: [11] 100 % of control | [12] 99 % of control | [15] 100 % of control

C#CCN(Cc1ccc2nc(N)[nH]c(=O)c2c1)c1ccc(C(=O)NC(CCC(=O)O)C(=O)O)cc1 (configuration not stated)
inactive: dose: 12.5 mg/kg/injection, schedule: Q01DX005 (ip), vehicle: water 103 % of control and 104 % of control and 97 % of control | dose: 25.0 mg/kg/injection, schedule: Q01DX005 (ip), vehicle: water 103 % of control and 104 % of control (2×) | dose: 50.0 mg/kg/injection, schedule: Q01DX005 (ip), vehicle: water 109 % of control and 120 % of control (2×) | dose: 100.0 mg/kg/injection, schedule: Q01DX005 (ip), vehicle: water 117 % of control | dose: 150.0 mg/kg/injection, schedule: Q01DX005 (ip), vehicle: alkali diluted with water 97 % of control | dose: 200.0 mg/kg/injection, schedule: Q01DX005 (ip), vehicle: water 97 % of control

C[C@H]1[C@H](O)[C@H]2[C@@H](CCC3=CC(=O)CC[C@@]32C)[C@@H]2CC[C@H](O)[C@@]12C
inactive: dose: 100.0 mg/kg/injection, schedule: Q04DX003 (ip), vehicle: saline with Tween-80 104 % of control | dose: 200.0 mg/kg/injection, schedule: Q04DX003 (ip), vehicle: saline with Tween-80 100 % of control | dose: 400.0 mg/kg/injection, schedule: Q04DX003 (ip), vehicle: saline with Tween-80 100 % of control

CCN(CC)c1ccc(/C=N/Nc2cc(C)nc3ccc(C4CCCCC4)cc23)cc1
inactive: [16] 90 % of control | [17] 100 % of control | [18] 118 % of control

Nc1cc(C(F)(F)F)cc(N)c1N
inactive: [16] 104 % of control | [17] 94 % of control | [18] 99 % of control

O=[N+]([O-])/C=C\c1ccc(/C=C/[N+](=O)[O-])cc1
inactive: dose: 1.25 mg/kg/injection, schedule: Q01DX009 (ip), vehicle: saline 103 % of control and 107 % of control | dose: 1.25 mg/kg/injection, schedule: Q01DX009 (ip), vehicle: suspension in saline 103 % of control | dose: 2.5 mg/kg/injection, schedule: Q01DX009 (ip), vehicle: saline 100 % of control and 108 % of control | dose: 2.5 mg/kg/injection, schedule: Q01DX009 (ip), vehicle: suspension in saline 116 % of control | dose: 5.0 mg/kg/injection, schedule: Q01DX009 (ip), vehicle: saline 104 % of control and 107 % of control | dose: 5.0 mg/kg/injection, schedule: Q01DX009 (ip), vehicle: suspension in saline 114 % of control | dose: 10.0 mg/kg/injection, schedule: Q01DX009 (ip), vehicle: saline 106 % of control and 116 % of control | dose: 10.0 mg/kg/injection, schedule: Q01DX009 (ip), vehicle: suspension in saline 116 % of control

OC1C=CC2C(CC1)C1(c3ccccc3)OC2(c2ccccc2)c2ccccc21 (configuration not stated)
inactive: [11] 100 % of control | [12] 98 % of control | [15] 99 % of control

CCN(CC)CC(C)(C)C(=O)/C=C/c1ccc(C)cc1
inactive: dose: 60.0 mg/kg/injection, schedule: Q01DX005 (ip), vehicle: saline 103 % of control | dose: 120.0 mg/kg/injection, schedule: Q01DX005 (ip), vehicle: saline 103 % of control | dose: 240.0 mg/kg/injection, schedule: Q01DX005 (ip), vehicle: saline 110 % of control

Cc1ccc(NC(=O)CCCC(=O)C(C#N)c2nc3ccccc3s2)cc1C (configuration not stated)
inactive: [8] 100 % of control | [9] 98 % of control | [10] 98 % of control

CN(C)CCO[Si](C)(c1ccccc1)c1ccc(F)cc1 (configuration not stated)
inactive: [19] 100 % of control | [20] 101 % of control | [21] 98 % of control and 101 % of control | [13] 99 % of control | [14] 114 % of control

Cc1cc(C)c2c(=O)n(-c3ccccc3C)c(=S)n(-c3ccccc3C)c2n1
inactive: [8] 100 % of control | [9] 86 % of control

Nc1nccc(Cl)n1
inactive: dose: 6.25 mg/kg/injection, schedule: Q01DX009 (ip), vehicle: saline with Tween-80 98 % of control | [19] 100 % of control | [20] 100 % of control | [21] 100 % of control

CC(=O)/C=C/C=C/c1ccc2c(c1)OC(CO)C(c1ccc(O)c(O)c1)O2 (configuration not stated)
inactive: [11] 95 % of control | [12] 90 % of control and 95 % of control | [15] 87 % of control | dose: 400.0 mg/kg/injection, schedule: Q01DX005 (ip), vehicle: Klucel (hydroxypropylcellulose) (HPC) 87 % of control

O=C(NNc1nc(CCl)cs1)c1ccccc1Cl
inactive: dose: 12.5 mg/kg/injection, schedule: Q01DX009 (ip), vehicle: Klucel (hydroxypropylcellulose) (HPC) 106 % of control | [1] 103 % of control and 111 % of control | [2] 103 % of control and 113 % of control | [3] 103 % of control and 107 % of control | [4] 94 % of control

NCCc1c[nH]c2ccc(OCc3ccccc3)cc12
inactive: dose: 50.0 mg/kg/injection, schedule: Q04DX003 (ip), vehicle: saline 109 % of control | dose: 100.0 mg/kg/injection, schedule: Q04DX003 (ip), vehicle: saline 116 % of control

NCP1(=O)CNC(=O)NC1
inactive: [5] 116 % of control | [6] 103 % of control | [7] 113 % of control

N#Cc1nc(CC(=O)c2ccc(Cl)c(Cl)c2)c(CC(=O)c2ccc(Cl)c(Cl)c2)nc1C#N
inactive: [8] 114 % of control | [9] 120 % of control | [10] 86 % of control

CCOC1=C(C#N)C(SC)=CS(C)(=O)=C1 (configuration not stated)
inactive: dose: 50.0 mg/kg/injection, schedule: Q04DX003 (ip), vehicle: Klucel (hydroxypropylcellulose) (HPC) 98 % of control | dose: 100.0 mg/kg/injection, schedule: Q04DX003 (ip), vehicle: Klucel (hydroxypropylcellulose) (HPC) 97 % of control | dose: 200.0 mg/kg/injection, schedule: Q04DX003 (ip), vehicle: Klucel (hydroxypropylcellulose) (HPC) 101 % of control
